Results from patent US20260022142A1, “MACROCYCLIC IMMUNOMODULATORS” (Bristol-Myers Squibb Company, priority 2022, published 2026).
Bridge positions count the residues as written; N and C are the ends. Square brackets hold non-standard residues; d marks the D form. Peptide text beside a SMILES is read from it. * marks the point of attachment. ξ: configuration not given here. Phe(4-COOH) = N[C@@H](Cc1ccc(C(=O)O)cc1)C(=O)O; Bip = N[C@@H](Cc1ccc(-c2ccccc2)cc1)C(=O)O; Ala(2-furyl) = N[C@@H](Cc1ccco1)C(=O)O; Phe(3-Me) = Cc1cccc(C[C@H](N)C(=O)O)c1; Pro(4R-NH2) = N[C@H]1CN[C@H](C(=O)O)C1; Val(3-OH) = CC(C)(O)[C@H](N)C(=O)O; 4Pal = N[C@@H](Cc1ccncc1)C(=O)O; Cha = N[C@@H](CC1CCCCC1)C(=O)O; dNMeN = CN[C@H](CC(N)=O)C(=O)O; Thr(3ξ) = CC(O)[C@H](N)C(=O)O; Carboxymethyl = O=C(O)C*; Orn = NCCC[C@H](N)C(=O)O; Aun = NCCCCCCCCCCC(=O)O; Dab = NCC[C@H](N)C(=O)O; Dap = NC[C@H](N)C(=O)O; AEEA = NCCOCCOCC(=O)O

molecular target: T1, PD-1/PD-L1 interaction (PE-labeled human PD-L1-Ig binding to Jurkat cell line over-expressing human PD-1) (Homo sapiens, UniProt Q15116); experiment: Jurkat-PD-1 Cell Binding High-Content Screening Assay (CBA); assay type: cell-based; conditions: Jurkat cell line over-expressing human PD-1; PE-labeled PD-L1-Ig 20 nM final; read-out: Jurkat hPD1-PDL1 IC50
T1 construct: expressed in transfected cells; host or cells: Jurkat
T1 sequence (Q15116 25-288): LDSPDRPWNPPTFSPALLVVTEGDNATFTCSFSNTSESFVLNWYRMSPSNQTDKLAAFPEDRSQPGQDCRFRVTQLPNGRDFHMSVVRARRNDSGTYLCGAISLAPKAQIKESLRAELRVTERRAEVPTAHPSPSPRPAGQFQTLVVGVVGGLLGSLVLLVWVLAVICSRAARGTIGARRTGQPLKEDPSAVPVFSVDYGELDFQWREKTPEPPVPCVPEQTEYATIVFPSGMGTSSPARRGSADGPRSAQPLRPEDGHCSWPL
Summary of the method: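 Jurkat cells stably over-expressing human PD-1 were seeded in DMEM with 10% fetal calf serum and pre-incubated with compound for 2 h at 37° C. PE-labeled human PD-L1-Ig was then added at 20 nM final for 1 hour, after which cells were fixed with paraformaldehyde, Hoechst-stained and imaged by high-content microscopy.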

Structure (SMILES) | IC50
CC(C)C[C@H]1NC(=O)[C@H](CCCN)NC(=O)[C@H](C(C)C)NC(=O)[C@H](Cc2ccc(-c3ccccc3)cc2)NC(=O)[C@H](C(C)C)NC(=O)[C@H](Cc2c[nH]c3ccccc23)NC(=O)[C@H](CC(=O)O)NC(=O)[C@H](Cc2ccc(OCC(=O)O)cc2)NC(=O)[C@H](CCCNC(=N)N)NC(=O)CSC[C@@H](C(=O)N[C@@H](CCCN)C(=O)NCCCCCCCCCCC(=O)O)NC(=O)[C@H](C(C)O)NC(=O)[C@H](C(C)C)NC(=O)[C@H](CC2CCCCC2)NC(=O)[C@H](CCN)NC1=O (stereo partly drawn) [Compound 3344] ({CH2CO}-RY(Carboxymethyl)DWV[Bip]V[Orn][dL][Dab][Cha]V[Thr(3ξ)]C[Orn][Aun]-OH; thioether N-14) | 14.6 nM
CC[C@H](C)[C@@H]1NC(=O)[C@H](Cc2ccc(-c3ccccc3)cc2)NC(=O)[C@H](C(C)C)NC(=O)[C@H](Cc2cccc(C)c2)NC(=O)[C@H](CC(=O)O)NC(=O)[C@H](Cc2ccc(C(=O)O)cc2)NC(=O)[C@H](Cc2ccncc2)NC(=O)CSC[C@@H](C(=O)NCCOCCOCC(=O)N[C@@H](CCN)C(=O)NCCCCCCCCCCC(=O)O)NC(=O)[C@H]([C@@H](C)O)NC(=O)[C@H](C(C)C)NC(=O)[C@H](CC2CCCCC2)NC(=O)[C@H](CCN)NC(=O)[C@@H](CC(C)C)NC(=O)[C@H](CCCN)NC1=O [Compound 1189] ({CH2CO}-[4Pal][Phe(4-COOH)]D[Phe(3-Me)]V[Bip]I[Orn][dL][Dab][Cha]VTC[AEEA][Dab][Aun]-OH; thioether N-14) | 23.6 nM
Cc1cccc(C[C@@H]2NC(=O)[C@H](CC(=O)O)NC(=O)[C@H](Cc3ccc(OCC(=O)O)cc3)NC(=O)[C@H](CN)NC(=O)CSC[C@@H](C(=O)N[C@@H](CCN)C(=O)NCCCCCCCCCCC(=O)O)NC(=O)[C@@H](CCC(N)=O)NC(=O)[C@H](C(C)C)NC(=O)[C@H](CC3CCCCC3)NC(=O)[C@H](CCN)NC(=O)[C@@H](CC(C)C)NC(=O)[C@H](CCCN)NC(=O)[C@H](Cc3ccc(O)cc3)NC(=O)[C@H](Cc3ccc(-c4ccccc4)cc3)NC(=O)[C@H](CC(C)C)NC2=O)c1 [Compound 2769] ({CH2CO}-[Dap]Y(Carboxymethyl)D[Phe(3-Me)]L[Bip]Y[Orn][dL][Dab][Cha]V[dQ]C[Dab][Aun]-OH; thioether N-14) | 60.7 nM
Cc1cccc(C[C@@H]2NC(=O)[C@H](CC(=O)O)NC(=O)[C@H](Cc3ccc(OCC(=O)O)cc3)NC(=O)[C@H](CN)NC(=O)CSC[C@@H](C(=O)N[C@@H](CCN)C(=O)NCCOCCOCC(=O)NCCCCCCCCCCC(=O)O)NC(=O)[C@H](CCCN)NC(=O)[C@H](Cc3ccc(O)cc3)NC(=O)[C@H](CC3CCCCC3)NC(=O)[C@H](CCN)NC(=O)[C@@H](CC(C)C)NC(=O)[C@H](CCCN)NC(=O)[C@H](C(C)C)NC(=O)[C@H](Cc3ccc(-c4ccccc4)cc3)NC(=O)[C@H](C(C)C)NC2=O)c1 [Compound 2586] ({CH2CO}-[Dap]Y(Carboxymethyl)D[Phe(3-Me)]V[Bip]V[Orn][dL][Dab][Cha]Y[Orn]C[Dab][AEEA][Aun]-OH; thioether N-14) | 22.2 nM
Cc1cccc(C[C@@H]2NC(=O)[C@H](CC(=O)O)NC(=O)[C@H](Cc3ccc(OCC(=O)O)cc3)NC(=O)[C@H](Cc3ccco3)NC(=O)CSC[C@@H](C(=O)N(C)[C@H](CC(N)=O)C(=O)NCCCCCCCCCCC(=O)O)NC(=O)[C@H](CCCN)NC(=O)[C@H](C(C)C)NC(=O)[C@H](CC3CCCCC3)NC(=O)[C@H](CCN)NC(=O)[C@@H](CC(C)C)NC(=O)[C@H](CCN)NC(=O)[C@H](C(C)C)NC(=O)[C@H](Cc3ccc(-c4ccccc4)cc3)NC(=O)[C@H](C(C)C)NC2=O)c1 [Compound 3352] ({CH2CO}-[Ala(2-furyl)]Y(Carboxymethyl)D[Phe(3-Me)]V[Bip]V[Dab][dL][Dab][Cha]V[Orn]C[dNMeN][Aun]-OH; thioether N-14) | 26.5 nM
Cc1cccc(C[C@@H]2NC(=O)[C@H](CC(=O)O)NC(=O)[C@H](Cc3ccc(OCC(=O)O)cc3)NC(=O)[C@H](CC(N)=O)NC(=O)CSC[C@@H](C(=O)N[C@@H](CCN)C(=O)NCCCCCCCCCCC(=O)O)NC(=O)[C@H](CO)NC(=O)[C@H](C(C)(C)O)NC(=O)[C@H](CC3CCCCC3)NC(=O)[C@H](CCN)NC(=O)[C@@H](CC(C)C)NC(=O)[C@H](CCCN)NC(=O)[C@H](Cc3ccc(OCC(=O)O)cc3)NC(=O)[C@H](Cc3ccc(-c4ccccc4)cc3)NC(=O)[C@H](Cc3ccc(OCC(=O)O)cc3)NC2=O)c1 [Compound 2220] ({CH2CO}-NY(Carboxymethyl)D[Phe(3-Me)]Y(Carboxymethyl)[Bip]Y(Carboxymethyl)[Orn][dL][Dab][Cha][Val(3-OH)]SC[Dab][Aun]-OH; thioether N-14) | 12.3 nM
Cc1cccc(C[C@@H]2NC(=O)[C@H](CC(=O)O)NC(=O)[C@H](Cc3ccc(OCC(=O)O)cc3)NC(=O)[C@H](CN)NC(=O)CSC[C@@H](C(=O)N[C@@H](CCCCN)C(=O)NCCOCCOCC(=O)NCCCCCCCCCCC(=O)O)NC(=O)[C@H](CCCN)NC(=O)[C@H](C(C)C)NC(=O)[C@H](CC3CCCCC3)NC(=O)[C@H](CCN)NC(=O)[C@@H](CC(C)C)NC(=O)[C@H](CCCN)NC(=O)[C@H](C(C)C)NC(=O)[C@H](Cc3ccc(-c4ccccc4)cc3)NC(=O)[C@H](C(C)C)NC2=O)c1 [Compound 2527] ({CH2CO}-[Dap]Y(Carboxymethyl)D[Phe(3-Me)]V[Bip]V[Orn][dL][Dab][Cha]V[Orn]CK[AEEA][Aun]-OH; thioether N-14) | 6.8 nM
Cc1cccc(C[C@@H]2NC(=O)[C@H](CC(=O)O)NC(=O)[C@H](Cc3ccc(OCC(=O)O)cc3)NC(=O)[C@H](CCCNC(=N)N)NC(=O)CSC[C@@H](C(=O)N[C@H](CC(N)=O)C(=O)NCCCCCCCCCCC(=O)O)NC(=O)[C@H](CO)NC(=O)[C@H](C(C)O)NC(=O)[C@H](CC3CCCCC3)NC(=O)[C@H](CCN)NC(=O)[C@@H](CC(C)C)NC(=O)[C@H](CCCN)NC(=O)[C@H](Cc3ccc(OCC(=O)O)cc3)NC(=O)[C@H](Cc3ccc(-c4ccccc4)cc3)NC(=O)[C@H](Cc3ccc(OCC(=O)O)cc3)NC2=O)c1 (stereo partly drawn) [Compound 3526] ({CH2CO}-RY(Carboxymethyl)D[Phe(3-Me)]Y(Carboxymethyl)[Bip]Y(Carboxymethyl)[Orn][dL][Dab][Cha][Thr(3ξ)]SC[dN][Aun]-OH; thioether N-14) | 112 nM

The remaining lines, values ahead:

IC50 | Structure (SMILES)
11.4 nM | CC(C)C[C@H]1NC(=O)[C@H](CCCN)NC(=O)[C@H](C(C)C)NC(=O)[C@H](Cc2ccc(-c3ccccc3)cc2)NC(=O)[C@H](C(C)C)NC(=O)[C@H](Cc2c[nH]c3ccccc23)NC(=O)[C@H](CC(=O)O)NC(=O)[C@H](Cc2ccc(C(=O)O)cc2)NC(=O)[C@H](CCCNC(=N)N)NC(=O)CSC[C@@H](C(=O)NCC(=O)NCCOCCOCC(=O)N[C@@H](CCCN)C(=O)NCCCCCCCCCCC(=O)O)NC(=O)[C@H](CN)NC(=O)[C@H](C(C)C)NC(=O)[C@H](CC2CCCCC2)NC(=O)[C@H](CCN)NC1=O [Compound 3239] ({CH2CO}-R[Phe(4-COOH)]DWV[Bip]V[Orn][dL][Dab][Cha]V[Dap]CG[AEEA][Orn][Aun]-OH; thioether N-14)
10.3 nM | Cc1cccc(C[C@@H]2NC(=O)[C@H](CC(=O)O)NC(=O)[C@H](Cc3ccc(OCC(=O)O)cc3)NC(=O)[C@H](CCCNC(=N)N)NC(=O)CSC[C@@H](C(=O)N[C@@H](CCN)C(=O)NCCCCCCCCCCC(=O)O)NC(=O)[C@H](CCC(N)=O)NC(=O)[C@H](CO)NC(=O)[C@H](CC3CCCCC3)NC(=O)[C@H](CCN)NC(=O)[C@@H](CC(C)C)NC(=O)[C@H](CCCN)NC(=O)[C@H](Cc3ccc(OCC(=O)O)cc3)NC(=O)[C@H](Cc3ccc(-c4ccccc4)cc3)NC(=O)[C@H](Cc3ccc(OCC(=O)O)cc3)NC2=O)c1 [Compound 3516] ({CH2CO}-RY(Carboxymethyl)D[Phe(3-Me)]Y(Carboxymethyl)[Bip]Y(Carboxymethyl)[Orn][dL][Dab][Cha]SQC[Dab][Aun]-OH; thioether N-14)
159 nM | CC(C)C[C@H]1NC(=O)[C@H](CCCN)NC(=O)[C@H](C(C)C)NC(=O)[C@H](Cc2ccc(-c3ccccc3)cc2)NC(=O)[C@H](C(C)C)NC(=O)[C@H](Cc2c[nH]c3ccccc23)NC(=O)[C@H](CC(=O)O)NC(=O)[C@H](Cc2ccc(OCC(=O)O)cc2)NC(=O)[C@H](Cc2ccncc2)NC(=O)CSC[C@@H](C(=O)NCC(=O)NCCOCCOCC(=O)N[C@@H](CCCN)C(=O)NCCCCCCCCCCC(=O)O)NC(=O)[C@H](CCN)NC(=O)[C@H](C(C)C)NC(=O)[C@H](CC2CCCCC2)NC(=O)[C@@H]2C[C@@H](N)CN2C1=O [Compound 3237] ({CH2CO}-[4Pal]Y(Carboxymethyl)DWV[Bip]V[Orn][dL][Pro(4R-NH2)][Cha]V[Dab]CG[AEEA][Orn][Aun]-OH; thioether N-14)
30.1 nM | CC(C)C[C@H]1NC(=O)[C@H](CCCN)NC(=O)[C@H](Cc2ccc(O)cc2)NC(=O)[C@H](Cc2ccc(-c3ccccc3)cc2)NC(=O)[C@H](C(C)C)NC(=O)[C@H](Cc2c[nH]c3ccccc23)NC(=O)[C@H](CC(=O)O)NC(=O)[C@H](Cc2ccc(OCC(=O)O)cc2)NC(=O)[C@H]([C@@H](C)O)NC(=O)CSC[C@@H](C(=O)N[C@@H](CCN)C(=O)NCCCCCCCCCCC(=O)O)NC(=O)[C@H]([C@@H](C)O)NC(=O)[C@H](C(C)C)NC(=O)[C@H](CC2CCCCC2)NC(=O)[C@H](CCN)NC1=O [Compound 2727] ({CH2CO}-TY(Carboxymethyl)DWV[Bip]Y[Orn][dL][Dab][Cha]VTC[Dab][Aun]-OH; thioether N-14)
15.1 nM | COc1ccc(C[C@@H]2NC(=O)[C@H](Cc3ccncc3)NC(=O)CSC[C@@H](C(=O)N[C@@H](CCN)C(=O)NCCCCCCCCCCC(=O)O)NC(=O)[C@H](CO)NC(=O)[C@H](C(C)(C)O)NC(=O)[C@H](CC3CCCCC3)NC(=O)[C@H](CCN)NC(=O)[C@@H](CC(C)C)NC(=O)[C@H](CCCN)NC(=O)[C@H](Cc3ccc(OCC(=O)O)cc3)NC(=O)[C@H](Cc3ccc(-c4ccccc4)cc3)NC(=O)[C@H](Cc3ccc(OCC(=O)O)cc3)NC(=O)[C@H](Cc3cccc(C)c3)NC(=O)[C@H](CC(=O)O)NC2=O)cc1 [Compound 2197] ({CH2CO}-[4Pal]Y(Me)D[Phe(3-Me)]Y(Carboxymethyl)[Bip]Y(Carboxymethyl)[Orn][dL][Dab][Cha][Val(3-OH)]SC[Dab][Aun]-OH; thioether N-14)
